Measurements taken from ChEMBL document CHEMBL4808169, “Discovery of Potent and Fast-Acting Antimalarial Bis-1,2,4-triazines” (J Med Chem, 2021).
In brackets after ≈: the same amount, converted by molar mass. Activity calls are given as the source filed them. The rule behind the calls is not given here.

Experiments:
[1] = test system: Plasmodium falciparum; assay: microbe, parasite or virus in culture; conditions: 3D7, 72 h
Description: Antimalarial activity against Plasmodium falciparum 3D7 infected in human red blood cells after 72 hrs by DAPI-staining based assay

[2] = test system: Plasmodium berghei; assay: Antiplasmodial activity against Plasmodium berghei ANKA infected in po dosed Swiss mouse administered at 2 hrs post infection and measured on day 4 by Peter's 4-day test; type: functional
[3] = test system: Plasmodium falciparum; assay: Bactericidal activity against Plasmodium falciparum 3D7A at 10 times IC50; type: functional, organism-based
[4] = Intrinsic clearance in human liver microsomes assessed per mg of protein in presence of NADPH by UPLC-MS analysis; type: ADME, Microsome; conditions: read-out: CLH
[5] = Half life in mouse liver microsomes in presence of NADPH by UPLC-MS analysis; type: ADME, Microsome
[6] = Half life in human liver microsomes in presence of NADPH by UPLC-MS analysis; type: ADME, Microsome
[7] = Kinetic solubility of compound at pH 2 by nephelometry; type: physicochemical; conditions: buffer, read-out: Kinetic_solubility
[8] = Intrinsic clearance in mouse liver microsomes in presence of NADPH by UPLC-MS analysis; type: ADME, Microsome
[9] = Kinetic solubility of compound at pH 6.5 by nephelometry; type: physicochemical; conditions: buffer, read-out: Kinetic_solubility
[10] = test system: Plasmodium falciparum; assay: Antimalarial activity against Plasmodium falciparum 3D7 infected in human red blood cells at 40 uM after 72 hrs by DAPI-staining based assay relative to control; type: functional

## CC(C)Oc1nncc(-c2cnnc(OCCN(C)C)n2)n1
[1]
  IC50: 440 nM

## COc1nncc(-c2cnnc(SCCN(C)C)n2)n1
[1]
  IC50: 850 nM

## C[C@H]1[C@H](OC(=O)CCC(=O)O)O[C@@H]2O[C@@]3(C)CC[C@H]4[C@H](C)CC[C@@H]1[C@@]24OO3 [ARTESUNATE]
[2]
  ED50: 1.37 mg/kg/day
[3]
  Activity: Active

## CCCCc1nncc(-c2cnnc(SCCN(C)C)n2)n1
[1]
  IC50: 9 nM
[4]
  microsomal CLint: 56 µL/min/mg
[5]
  half-life: 5 min
[6]
  half-life: 31 min
[7]
  solubility kinetic: 50 µg/mL (≈ 157 µM)
[8]
  microsomal CLint: 330 µL/min/mg
[9]
  solubility kinetic: 25 µg/mL (≈ 78.3 µM)

## [N-]=[N+]=NCCCSc1nncc(-c2cnnc(SCCCN=[N+]=[N-])n2)n1
[1]
  IC50: 31 nM

## COCCOc1nncc(-c2cnnc(OCCOC)n2)n1
[10]
  Activity: 100%

## C#CCSc1nncc(-c2cnnc(SC)n2)n1
[1]
  IC50: 32 nM

## c1nnc(OC2CC2)nc1-c1cnnc(OC2CC2)n1
[1]
  IC50: 890 nM

## C#CCOc1nncc(-c2cnnc(SC)n2)n1
[1]
  IC50: 130 nM

## CCc1nncc(-c2cnnc(SCCN(C)C)n2)n1
[1]
  IC50: 120 nM
[4]
  microsomal CLint: 9 µL/min/mg
[5]
  half-life: 15 min
[6]
  half-life: 199 min
[7]
  solubility kinetic: 50 µg/mL (≈ 172 µM)
[8]
  microsomal CLint: 118 µL/min/mg
[9]
  solubility kinetic: 25 µg/mL (≈ 85.8 µM)

## COCCSc1nncc(-c2cnnc(SCCN(C)C)n2)n1
[1]
  IC50: 260 nM

## CSc1nncc(-c2cnnc(SCCCN=[N+]=[N-])n2)n1
[1]
  IC50: 4.4 nM

## Cc1ncsc1CCOc1nncc(-c2cnnc(OCCc3scnc3C)n2)n1
[1]
  IC50: 500 nM

## C[Si](C)(C)CCOc1nncc(-c2cnnc(OCC[Si](C)(C)C)n2)n1
[1]
  IC50: 720 nM

## CCCOc1nncc(-c2cnnc(OCCC)n2)n1
[1]
  IC50: 110 nM

## CC(C)Oc1nncc(-c2cnnc(OC(C)C)n2)n1
[1]
  IC50: 2000 nM

## CCCOc1nncc(-c2cnnc(SCCN(C)C)n2)n1
[1]
  IC50: 11 nM

## CSc1nncc(-c2cnnc(SCCN(C)C)n2)n1
[7]
  solubility kinetic: 6.3 µg/mL (≈ 20.4 µM)
[9]
  solubility kinetic: 6.3 µg/mL (≈ 20.4 µM)

## CN(C)CCOc1nncc(-c2cnnc(OCCC(F)(F)F)n2)n1
[1]
  IC50: 54 nM
[4]
  microsomal CLint: 7 µL/min/mg
[5]
  half-life: 53 min
[6]
  half-life: 232 min
[7]
  solubility kinetic: 50 µg/mL (≈ 139 µM)
[8]
  microsomal CLint: 33 µL/min/mg
[9]
  solubility kinetic: 50 µg/mL (≈ 139 µM)

## CC(C)Sc1nncc(-c2cnnc(OCCN(C)C)n2)n1
[1]
  IC50: 12 nM

## CC(C)Oc1nncc(-c2cnnc(SCCN(C)C)n2)n1
[1]
  IC50: 81 nM

## CC(C)Sc1nncc(-c2cnnc(SCCN(C)C)n2)n1
[1]
  IC50: 210 nM

## CCCCc1nncc(-c2cnnc(CCCC)n2)n1
[1]
  IC50: 340 nM

## FC(F)(F)COc1nncc(-c2cnnc(OCC(F)(F)F)n2)n1
[1]
  IC50: 420 nM

## CSc1nncc(-c2cnnc(OC(C)CN(C)C)n2)n1 (configuration not stated)
[1]
  IC50: 32 nM

## CCCCc1nncc(-c2cnnc(OCCN(C)C)n2)n1
[1]
  IC50: 30 nM
[4]
  microsomal CLint: 25 µL/min/mg
[5]
  half-life: 16 min
[6]
  half-life: 69 min
[7]
  solubility kinetic: 25 µg/mL (≈ 82.4 µM)
[8]
  microsomal CLint: 109 µL/min/mg
[9]
  solubility kinetic: 25 µg/mL (≈ 82.4 µM)

## CN(C)CCOc1nncc(-c2cnnc(OCCN(C)C)n2)n1
[1]
  IC50: 8600 nM

## CC#CCOc1nncc(-c2cnnc(OCC#CC)n2)n1
[1]
  IC50: 1000 nM

## CC(CN(C)C)Oc1nncc(-c2cnnc(OC(C)CN(C)C)n2)n1 (configuration not stated)
[1]
  IC50: 12000 nM

## CCN(CC)CCCC(C)Nc1ccnc2cc(Cl)ccc12 (configuration not stated) [CHLOROQUINE]
[3]
  Activity: Active

## FC(F)(F)CCOc1nncc(-c2cnnc(OCCC(F)(F)F)n2)n1
[1]
  IC50: 93 nM
